Results reported in patent US20090123581A1, “COLLAGEN CROSS-LINKING AGENTS ON DENTAL RESTORATIVE TREATMENT AND PREVENTIVE DENTISTRY” (THE BOARD OF TRUSTEES OF THE UNIVERSITY OF ILLINOIS, priority 2006, published 2009).

Test: Modulus of elasticity of demineralized dentin, 3-point bend method (Example 3)
Design: species or system human
Conditions: for modulus of elasticity, pooled data: pooled over all times (baseline to 4 h)
Description: Twelve sound extracted human molars were used. The teeth were thawed, cleaned of adhering soft tissues, and the occlusal surfaces were ground flat with #320 grit silicon carbide abrasive paper under running water to remove part of the enamel (Buehler, Lake Bluff, Ill.). Flattening of the occlusal surface by cusp removal enables more accurate sectioning of samples. The root portion was sectioned 1 mm below the CEJ and discarded. Teeth were sectioned into 0.5±0.1 mm thick beams (n=5 beams per tooth) in the mesio-buccal direction with a slow speed diamond wafering blade (Buehler-Series 15LC Diamond) under constant water irrigation (FIG. 1A). The sections were further trimmed using a cylindrical diamond bur (#557D, Brasseler, Savannah, Ga.) in a high speed handpiece, to a final rectangular dimension of 0.5 mm thickness×1.7 mm width×7.0 mm length. A dimple was made at one end of the surfaces to allow for repeated measurements to be performed on the same surface (FIG. 1A).
Specimens were immersed in 10% phosphoric acid solution (LabChem Inc, Pittsburgh, Pa.) for a period of 5 hours and thoroughly rinsed with distilled water for 10 minutes. X-rays were taken of the specimens to verify complete tissue demineralization. Demineralized specimens were randomly divided into the following groups according to dentin treatment (FIG. 1B): 2.5% glutaraldehyde (Fisher Biotech, Fair Lawn, N.J.) in PBS (pH: 7.4); 5% glutaraldehyde in PBS (pH: 7.4); 25% glutaraldehyde in PBS (pH: 7.4); 0.65% grape seed extract (Mega-Natural—Polyphenolics Ind., Madera, Calif.) in PBS (pH: 7.4); and 6.5% grape seed extract in PBS solution (pH: 7.4). Specimens were immersed in water for baseline measurements and then in their respective solutions for 10 min, 30 min, 1 hour, 2 hour and 4 hours of cumulative exposure (FIG. 1C).
The 3-point bend method was selected for evaluation of the modulus of elasticity. The advantages of this method are that it requires no gripping of these small specimens and that it is non-destructive and therefore permits repeated measurements to be performed (FIG. 1C). An aluminum alloy fixture with a 5.0 mm span between supports was glued to the bottom of a glass Petri dish. Specimens were tested in compression while immersed in liquid using a Vitrodyne testing machine (Model V-1000, Chatillon, Greensboro, N.C.) with a 50 grams load cell at crosshead speed of 0.5 mm/min. Load-displacement curves were converted to stress-strain curves and the apparent modulus of elasticity calculated at 3% strain. Displacement (D) during compression was calculated at a maximum strain of 3% using the following formula (Nielsen L E. Mechanical properties of polymers and composites. Vol. 1, New York: Marcel Dekker Inc., 1974, p. 45.):
Where ε is strain, L is support span and T is thickness of the specimen.
Then the modulus of elasticity (É) of the specimens was calculated using the following formula (Nielsen, 1974): […]
Where P is the maximum load, L is the support span, D is the displacement, b width of the specimen and T is the thickness of the specimen.
Baseline measurements were obtained with specimens immersed in distilled water. All experimental periods were evaluated with the samples immersed in their respective cross-linking agents. A total of 10-12 specimens were evaluated per group. The data were collected and statistically analyzed using a General Linear Model SPSS program for ANOVA repeated measurements at a 95% confidence interval.

In the case of `O=CCCCC=O` [GD, glutaraldehyde], the modulus of elasticity (2.5% GD group, Baseline (in distilled water, before exposure)) was 4.82 MPa, the modulus of elasticity (2.5% GD in PBS pH 7.4, 10 min cumulative exposure) was 20.45 MPa and the modulus of elasticity (2.5% GD in PBS pH 7.4, 30 min cumulative exposure) was 30.22 MPa. The modulus of elasticity (2.5% GD in PBS pH 7.4, 1 h cumulative exposure) was 32.10 MPa, the modulus of elasticity (2.5% GD in PBS pH 7.4, 2 h cumulative exposure) was 34.44 MPa and the modulus of elasticity (2.5% GD in PBS pH 7.4, 4 h cumulative exposure) was 34.86 MPa. For the same compound, the “modulus of elasticity, pooled data” value (2.5% GD) was 26.15 A MPa, the modulus of elasticity (5% GD group, Baseline (in distilled water, before exposure)) was 5.97 MPa and the modulus of elasticity (5% GD in PBS pH 7.4, 10 min cumulative exposure) was 18.37 MPa. It also gave a modulus of elasticity (5% GD in PBS pH 7.4, 30 min cumulative exposure) of 27.25 MPa, a modulus of elasticity (5% GD in PBS pH 7.4, 1 h cumulative exposure) of 29.77 MPa and a modulus of elasticity (5% GD in PBS pH 7.4, 2 h cumulative exposure) of 33.08 MPa. For the same compound, the modulus of elasticity (5% GD in PBS pH 7.4, 4 h cumulative exposure) was 38.14 MPa, the “modulus of elasticity, pooled data” value (5% GD) was 25.43 A MPa and the modulus of elasticity (25% GD group, Baseline (in distilled water, before exposure)) was 5.32 MPa. For the same compound, the modulus of elasticity (25% GD in PBS pH 7.4, 10 min cumulative exposure) was 32.26 MPa, the modulus of elasticity (25% GD in PBS pH 7.4, 30 min cumulative exposure) was 37.83 MPa and the modulus of elasticity (25% GD in PBS pH 7.4, 1 h cumulative exposure) was 41.31 MPa. The modulus of elasticity (25% GD in PBS pH 7.4, 2 h cumulative exposure) was 41.21 MPa, the modulus of elasticity (25% GD in PBS pH 7.4, 4 h cumulative exposure) was 42.80 MPa and the “modulus of elasticity, pooled data” value (25% GD) was 33.45 B MPa.
